This is an account of results in ChEMBL document CHEMBL4002643, “Tubulin-binding dibenz[c,e]oxepines: Part 2. Structural variation and biological evaluation as tumour vasculature disrupting agents” (Bioorg Med Chem, 2017).

Activity calls are given as the source filed them. No cut-off for these calls is given here.

For one data set, the system named is K562. Description: Cytotoxicity against human K562 cells assessed as growth inhibition after 5 days by MTT assay. The data set is classed as functional, cell-based. The settings on record: K562, 120 h. In general terms: Tetrazolium dyes change colour on reduction, which living cells bring about.
The next data set deals with SK-OV-3. Nature of the data set: Cytotoxicity against human SKOV3 cells assessed as growth inhibition after 48 hrs by SRB assay. The data set is classed as functional. Conditions: SK-OV-3, 48 h. A general note: Sulforhodamine B stains cellular protein and so reports cell mass.
The subject of the next data set is COLO 205. Description: Cytotoxicity against human COLO205 cells assessed as growth inhibition after 48 hrs by SRB assay. The data set is classed as functional. Conditions: COLO 205, 48 h.
A further data set deals with MOLT-4. Nature of the data set: Cytotoxicity against human MOLT4 cells assessed as growth inhibition after 48 hrs by SRB assay. It counts as functional. The settings on record: MOLT-4, 48 h.
For another data set, the system named is SF-295. Description: Cytotoxicity against human SF295 cells assessed as growth inhibition after 48 hrs by SRB assay. The data set is classed as functional. Conditions: SF-295, 48 h.
Data set [1] has as its system Calu-6. Nature of the data set: Antitumor activity against human Calu6 cells xenografted in nu/nu CBA mouse assessed as tumor growth inhibition at 67.5 to 135 mg/kg, ip administered on day 1 and 5 measured on day 3 to 4 and day 7 to 16 post dose. It counts as functional, organism-based. (In general: In xenograft studies the graft and the host belong to different species.)

The next data set deals with TK-10. Description: Cytotoxicity against human TK10 cells assessed as growth inhibition after 48 hrs by SRB assay. The data set is classed as functional. Conditions: TK-10, 48 h.
The subject of another data set is NCI-H23. Nature of the data set: Cytotoxicity against human NCI-H23 cells assessed as growth inhibition after 48 hrs by SRB assay. It counts as functional. The settings on record: NCI-H23, 48 h.
The subject of a further data set is HOP-92. Description: Cytotoxicity against human HOP92 cells assessed as growth inhibition after 48 hrs by SRB assay. It counts as functional. Conditions: HOP-92, 48 h.
The subject of the next data set is PC-3. Description: Cytotoxicity against human PC3 cells assessed as growth inhibition after 48 hrs by SRB assay. Conditions: PC-3, 48 h. It counts as functional.
The subject of data set [2] is Mus musculus. Nature of the data set: Toxicity in human Calu6 cells xenografted nu/nu CBA mouse assessed as change in body weight at 67.5 to 135 mg/kg, ip administered on day 1 and 5 measured daily over 12 days. The data set is classed as organism-based. Conditions: in vivo, 288 h.
The next data set relates to U-251. Description: Cytotoxicity against human U251 cells assessed as growth inhibition after 48 hrs by SRB assay. It counts as functional. The settings on record: U-251, 48 h.
Data set [3] relates to Calu-6. Nature of the data set: Antitumor activity against human Calu6 cells xenografted in nu/nu CBA mouse assessed as tumor growth inhibition at 67.5 to 135 mg/kg, ip administered on day 1 and 5 measured on day 2 and 6 post dose. It counts as functional, organism-based.
In the next data set the test system is A549. Description: Cytotoxicity against human A549 cells assessed as growth inhibition after 48 hrs by SRB assay. It counts as functional. Conditions: A549, 48 h.
The test system of the next data set is EKVX. Description: Cytotoxicity against human EKVX cells assessed as growth inhibition after 48 hrs by SRB assay. The data set is classed as functional.
The subject of the next data set is Malme-3M. Nature of the data set: Cytotoxicity against human MALME-3M cells assessed as growth inhibition after 48 hrs by SRB assay. The data set is classed as functional.
Data set [4] has as its system DLD-1. Nature of the data set: Induction of vascular shutdown in human DLD1 cells xenografted in Balb/C immunodeficient nude mouse assessed as vascular element counts at 400 mg/kg, iv at 24 hrs post dose by […] dye-based microscopic method (reference value: 3.73 +/- 3.1%). The data set is classed as functional.
The subject of data set [5] is DLD-1. Description: Vascular disrupting activity in human DLD1 cells xenografted in Balb/C immunodeficient nude mouse assessed as induction of necrosis by measuring necrotic area at 400 mg/kg, iv at 1 hr post dose by haematoxylin and eosin staining-based assay (reference value: 19 +/- 9.6%). The data set is classed as functional.
For data set [6], the system named is DLD-1. Description: Vascular disrupting activity in human DLD1 cells xenografted in Balb/C immunodeficient nude mouse assessed as induction of necrosis by measuring necrotic area at 400 mg/kg, iv at 4 hrs post dose by haematoxylin and eosin staining-based assay (reference value: 19 +/- 9.6%). It counts as functional.
The subject of data set [7] is DLD-1. Description: Vascular disrupting activity in human DLD1 cells xenografted in Balb/C immunodeficient nude mouse assessed as induction of necrosis by measuring necrotic area at 400 mg/kg, iv at 24 hrs post dose by haematoxylin and eosin staining-based assay (reference value: 19 +/- 9.6%). It counts as functional.
For data set [8], the system named is DLD-1. Description: Induction of vascular shutdown in human DLD1 cells xenografted in Balb/C immunodeficient nude mouse assessed as vascular element counts at 400 mg/kg, iv at 4 hrs post dose by […] dye-based microscopic method (reference value: 3.73 +/- 3.1%). It counts as functional.
Data set [9] has as its system DLD-1. Nature of the data set: Induction of vascular shutdown in human DLD1 cells xenografted in Balb/C immunodeficient nude mouse at 400 mg/kg, iv by […] dye-based microscopic method. The settings on record: TDE = time-dependent effect. It counts as functional, organism-based.
Data set [10] deals with Mus musculus. Description: Toxicity in human DLD1 cells xenografted Balb/C immunodeficient nude mouse assessed as body weight loss at 200 to 400 mg/kg, iv administered day 2 and 4 measured 14 days post dose. The data set is classed as organism-based. The settings on record: in vivo, 336 h.
For data set [11], the system named is DLD-1. Nature of the data set: Induction of vascular shutdown in human DLD1 cells xenografted in Balb/C immunodeficient nude mouse assessed as vascular element counts at 400 mg/kg, iv at 1 hr post dose by […] dye-based microscopic method (reference value: 3.73 +/- 3.1%). It counts as functional.

By IC50 is commonly meant the concentration that gives 50% inhibition. As usually defined, the GI50 is the concentration that inhibits growth by half.

Regarding `COc1ccc2c(c1O)COCc1cc(OC)c(OC)c(OC)c1-2`, in the data set on K562, the IC50 amounted to 34000 nM. For the same compound, the GI50 with SK-OV-3 was 70 nM; in the data set with COLO 205, 500 nM; with MOLT-4, 60 nM; in the data set with SF-295 it was 270 nM; with TK-10 it was over 100000 nM; in the data set with NCI-H23 it was 760 nM. Further, the GI50 in the data set on HOP-92 stood at 590 nM; in the data set on PC-3, 280 nM; with U-251, 300 nM; in the data set on A549, 350 nM. The TGI result in the data set on Calu-6 [1] was “inactive”. The Activity entry in the data set on Mus musculus [2] is on record as “Non-Toxic”. Further, the TGI entry in the data set with Calu-6 [3] is “Active”.
As for `COc1ccc2c(c1)COCc1cc(OC)c(OC)c(OC)c1-2`, the IC50 in the data set on K562 came out at 110000 nM. Further, the GI50 was 130 nM with SK-OV-3; 110 nM in the data set on COLO 205; 90 nM in the data set on MOLT-4; 60 nM with SF-295; 600 nM with EKVX; over 100000 nM with TK-10. In addition, the GI50 with NCI-H23 is 440 nM; with HOP-92, over 100000 nM; with PC-3 it was 480 nM; with U-251, 100 nM; in the data set on A549, 130 nM; in the data set with Malme-3M it was over 100000 nM.
For `COc1ccc2c(c1OP(=O)([O-])[O-])COCc1cc(OC)c(OC)c(OC)c1-2.[Na+].[Na+]`, the Activity is 0.95% with DLD-1 [4]; 27.1% in the data set on DLD-1 [5]; 26% in the data set with DLD-1 [6]; 74.1% in the data set with DLD-1 [7]; 1.96% with DLD-1 [8]; “Tde” with DLD-1 [9]. In addition, the Activity entry in the data set with Mus musculus [10] was “Non-Toxic”; with DLD-1 [11] it was 0.33%. Also, in the data set on K562, the IC50 stood at 230 nM. Moreover, the GI50 with SK-OV-3 turned out to be 400 nM; in the data set on COLO 205 it was 620 nM; in the data set on MOLT-4, 400 nM; in the data set with SF-295, 320 nM; in the data set with EKVX it was 680 nM; in the data set on NCI-H23, 710 nM. Also, the concentration for 50% growth inhibition (GI50) in the data set with PC-3 was found to be 560 nM; in the data set on U-251, 480 nM; in the data set with A549, 420 nM; with Malme-3M it was 2510 nM.
